The results in this text go back to ChEMBL document CHEMBL1777684, “Synthesis and evaluation of antioxidant and antibacterial activities of new substituted bis(1,3,4-oxadiazoles), 3,5-bis(substituted) pyrazoles and isoxazoles” (Bioorg Med Chem Lett, 2011).

Calls of active or inactive are those of the source. The calls are words filed in the database; no cut-off is given here.

Data set [1] has as its system Radical scavenging activity. Kind of data set: Antioxidant activity assessed as DPPH radical scavenging activity at 10 ug/ml by UV-visible spectrophotometry. Type of data set: functional. (DPPH is a stable violet radical that fades when it is reduced.)
The nature of data set [2]: Anti-lipid peroxidation activity ferric chloride-induced lipid peroxidation using egg yolk homogenate at 40 ug/ml by TBARS assay. Format: physicochemical. The conditions noted are these: tissue homogenate.
The next data set relates to Staphylococcus aureus. Kind of data set: Antibacterial activity against Staphylococcus aureus NCIM 2079 at 100 ug/ml after 24 hrs by agar disc diffusion method. Format: functional. The conditions noted are these: for zone of inhibition at 100 µg/mL: NCIM 2079, 24 h, read-out: IZ. (In agar diffusion tests the substance spreads into inoculated agar from a disc or well.)

For the next data set, the system named is Bacillus subtilis. Kind of data set: Antibacterial activity against Bacillus subtilis NCIM 2063 at 100 ug/ml after 24 hrs by agar disc diffusion method. The conditions noted are these: NCIM 2063, 24 h, read-out: IZ. Type of data set: functional.
The test system of a further data set is Escherichia coli. Kind of data set: Antibacterial activity against Escherichia coli NCIM 2065 at 100 ug/ml after 24 hrs by agar disc diffusion method. Format: functional. The conditions noted are these: for zone of inhibition at 100 µg/mL: NCIM 2065, 24 h, read-out: IZ.
The next data set concerns Pseudomonas aeruginosa. Kind of data set: Antibacterial activity against Pseudomonas aeruginosa NCIM 5029 at 100 ug/ml after 24 hrs by agar disc diffusion method. Type of data set: functional. The conditions noted are these: for zone of inhibition at 100 µg/mL: NCIM 5029, 24 h, read-out: IZ.

For `Oc1ccccc1-c1nnc(Cc2nnc(-c3ccccc3O)o2)o1`, the Activity worked out at 37% in data set [1] and 48.6% in data set [2]. Besides, the zone of inhibition at 100 µg/mL with Staphylococcus aureus was found to be 9 mm; with Bacillus subtilis, 13 mm; in the data set with Escherichia coli, 8 mm; in the data set on Pseudomonas aeruginosa it was 5 mm.

With `O=C(O)c1cn(C2CC2)c2cc(N3CCNCC3)c(F)cc2c1=O` [CIPROFLOXACIN], the figures for the zone of inhibition at 100 µg/mL in the data set on Staphylococcus aureus, in the data set with Bacillus subtilis and in the data set on Pseudomonas aeruginosa were 29 mm, 18 mm and 18 mm, respectively.

Regarding `COc1ccc(-c2nnc(Cc3nnc(-c4ccc(OC)cc4)o3)o2)cc1`, the outcome in data set [1] was inactive. Moreover, the Activity in data set [2] is 40.5%. Besides, the zone of inhibition at 100 µg/mL with Staphylococcus aureus turned out to be 9 mm; in the data set on Bacillus subtilis it was 8 mm; in the data set on Escherichia coli it was 6 mm; in the data set on Pseudomonas aeruginosa, 7 mm.

On to VITAMIN E, for which the Activity in data set [2] is reported as 70%.

Turning to `Oc1ccc(-c2nnc(Cc3nnc(-c4ccc(O)cc4)o3)o2)cc1`, the Activity worked out at 36% in data set [1] and 53.4% in data set [2]. In addition, the zone of inhibition at 100 µg/mL in the data set on Staphylococcus aureus is 7 mm; in the data set with Bacillus subtilis it was 2 mm; in the data set with Escherichia coli it was 1 mm; with Pseudomonas aeruginosa, 1 mm.

On to `Clc1ccc(/C=N/Nc2cc(N/N=C/c3ccc(Cl)cc3)on2)cc1`, for which the Activity in data set [1] was 37.4%; in data set [2], “Not Active”. Besides, the zone of inhibition at 100 µg/mL in the data set with Staphylococcus aureus worked out at 14 mm; in the data set on Bacillus subtilis it was 8 mm; in the data set with Escherichia coli, 8 mm; with Pseudomonas aeruginosa it was 6 mm.

Take `CN(C)c1ccc(/C=N/Nc2cc(N/N=C/c3ccc(N(C)C)cc3)on2)cc1`: the Activity in data set [1] amounted to 90.6%; in data set [2], 54.5%. Moreover, the zone of inhibition at 100 µg/mL with Staphylococcus aureus came to 20 mm; with Bacillus subtilis, 15 mm; in the data set with Escherichia coli, 10 mm; in the data set with Pseudomonas aeruginosa, 12 mm.

For the compound `COc1ccc(/C=N/Nc2cc(N/N=C/c3ccc(OC)c(OC)c3)[nH]n2)cc1OC`, in data set [1], the Activity is 47.1%. Also, the zone of inhibition at 100 µg/mL was 10 mm in the data set with Staphylococcus aureus, 8 mm in the data set with Bacillus subtilis, 13 mm in the data set with Escherichia coli and 6 mm in the data set with Pseudomonas aeruginosa.

Take `CN(C)c1ccc(/C=N/Nc2cc(N/N=C/c3ccc(N(C)C)cc3)[nH]n2)cc1`: in data set [1], the Activity came out at 59.2%. Further, the zone of inhibition at 100 µg/mL came to 20 mm with Staphylococcus aureus, 10 mm with Bacillus subtilis, 9 mm in the data set on Escherichia coli and 8 mm with Pseudomonas aeruginosa.

`Clc1ccc(-c2nnc(Cc3nnc(-c4ccc(Cl)cc4)o3)o2)cc1`: the Activity turned out to be 40% in data set [1] and 16.2% in data set [2]. Moreover, the zone of inhibition at 100 µg/mL is 4 mm in the data set on Staphylococcus aureus and 6 mm in the data set with Bacillus subtilis. In addition, the “inhibition zone (IZ)” value in the data set with Escherichia coli and in the data set with Pseudomonas aeruginosa was “inactive” in each case.

With `COc1cc(/C=N/Nc2cc(N/N=C/c3cc(OC)c(OC)c(OC)c3)[nH]n2)cc(OC)c1OC`, the Activity in data set [1] turned out to be 52.4%. The zone of inhibition at 100 µg/mL in the data set on Staphylococcus aureus turned out to be 17 mm; with Bacillus subtilis it was 12 mm; in the data set with Pseudomonas aeruginosa, 9 mm. Besides, the “inhibition zone (IZ)” value in the data set on Escherichia coli is “inactive”.

In the case of `Clc1ccc(/C=N/Nc2cc(N/N=C/c3ccc(Cl)cc3)[nH]n2)cc1`, the Activity in data set [1] is 40%. Besides, the zone of inhibition at 100 µg/mL came out at 4 mm in the data set with Staphylococcus aureus, 6 mm in the data set on Bacillus subtilis, 4 mm in the data set on Escherichia coli and 5 mm in the data set with Pseudomonas aeruginosa.

For `O=C1O[C@H]([C@@H](O)CO)C(O)=C1O`, the Activity in data set [1] was 93.2%.

Take `COc1ccc(-c2nnc(Cc3nnc(-c4ccc(OC)c(OC)c4)o3)o2)cc1OC`: the outcome in data set [1] was inactive. In addition, the zone of inhibition at 100 µg/mL with Staphylococcus aureus is 10 mm; with Bacillus subtilis, 11 mm; in the data set on Escherichia coli it was 10 mm; with Pseudomonas aeruginosa, 9 mm.

Take `CN(C)c1ccc(-c2nnc(Cc3nnc(-c4ccc(N(C)C)cc4)o3)o2)cc1`: the Activity in data set [1] was found to be 28%; in data set [2] it was 46.3%. Moreover, the zone of inhibition at 100 µg/mL with Staphylococcus aureus is 13 mm; in the data set with Bacillus subtilis, 12 mm; with Escherichia coli, 10 mm; with Pseudomonas aeruginosa it was 9 mm.

For `COc1cc(/C=N/Nc2cc(N/N=C/c3cc(OC)c(OC)c(OC)c3)on2)cc(OC)c1OC`, the Activity in data set [1] was 54%; in data set [2], 48.4%. Moreover, the zone of inhibition at 100 µg/mL with Staphylococcus aureus came out at 13 mm; in the data set on Bacillus subtilis, 10 mm; with Escherichia coli it was 11 mm; in the data set with Pseudomonas aeruginosa it was 9 mm.

As to `Oc1ccc(/C=N/Nc2cc(N/N=C/c3ccc(O)cc3)[nH]n2)cc1`, the Activity turned out to be 83% in data set [1] and 58.6% in data set [2]. Moreover, the “inhibition zone (IZ)” value with Staphylococcus aureus was “inactive”. Further, the zone of inhibition at 100 µg/mL was 7 mm with Bacillus subtilis, 13 mm in the data set on Escherichia coli and 18 mm in the data set with Pseudomonas aeruginosa.

`C(=N\Nc1cc(N/N=C/c2ccccc2)[nH]n1)/c1ccccc1`: the Activity in data set [1] stood at 34.2%; in data set [2], 44%. The zone of inhibition at 100 µg/mL amounted to 5 mm with Staphylococcus aureus, 9 mm with Bacillus subtilis, 4 mm with Escherichia coli and 9 mm in the data set with Pseudomonas aeruginosa.

In the case of `COc1ccc(/C=N/Nc2cc(N/N=C/c3ccc(OC)cc3)[nH]n2)cc1`, the Activity in data set [1] was found to be 44.3%; in data set [2], 46.3%. For the same compound, the zone of inhibition at 100 µg/mL in the data set with Staphylococcus aureus was determined as 28 mm; in the data set on Bacillus subtilis, 20 mm; in the data set with Escherichia coli, 18 mm; in the data set on Pseudomonas aeruginosa, 19 mm.

Take `c1ccc(-c2nnc(Cc3nnc(-c4ccccc4)o3)o2)cc1`: the values for the Activity in data set [1] and in data set [2] were 41.3% and 33.4%, respectively. The zone of inhibition at 100 µg/mL in the data set on Staphylococcus aureus was 7 mm; with Bacillus subtilis it was 10 mm; in the data set with Escherichia coli, 5 mm; in the data set on Pseudomonas aeruginosa, 13 mm.

Turning to `O=[N+]([O-])c1ccc(/C=N/Nc2cc(N/N=C/c3ccc([N+](=O)[O-])cc3)[nH]n2)cc1`, the results for the Activity in data set [1] and in data set [2] were 74.2% and “Not Active”, respectively. Further, the zone of inhibition at 100 µg/mL in the data set with Staphylococcus aureus was found to be 9 mm; with Bacillus subtilis it was 7 mm; in the data set with Escherichia coli, 11 mm; with Pseudomonas aeruginosa, 8 mm.

In turn, `COc1cc(-c2nnc(Cc3nnc(-c4cc(OC)c(OC)c(OC)c4)o3)o2)cc(OC)c1OC` had an Activity in data set [2] of 44.3%. Further, the zone of inhibition at 100 µg/mL in the data set on Staphylococcus aureus was found to be 7 mm; in the data set with Bacillus subtilis, 3 mm. Moreover, the “inhibition zone (IZ)” value in the data set with Escherichia coli and with Pseudomonas aeruginosa was “inactive” each time.
